Columns and labels:
RAS and PI3K signaling = assay: Immunoblot of oncogene-negative cell lines treated with drugs; format: cell-based, mouse; conditions: 3 oncogene-negative cell lines, 10 uM, 24 hours
Procedure: (§1) Cell lines were generated from tumors initiated in Trp53^flox/flox; TC BL6 mice four months after transduction with Lenti-sgNf1-sgRasa1-sgPten/Cre. After dissociation of tumors (described below), cells were cultured in the regular media.
For apoptosis and proliferation assays, 3×10^5 cells were seeded into 6-well plates and allowed to adhere overnight in regular growth media and cultured in the presence or absence 10 uM of Capivasertib, RMC-4550, or a combination of both drugs. After 24 hours, the protein was extracted using RIPA lysis buffer (Thermo Fisher Scientific, 89900) and proteinase/phosphatase inhibitor cocktail (Thermo Fisher Scientific, 78442). Protein concentration was measured using BCA protein assay kit (Thermo Fisher Scientific, 23250). Proteins (30 ug from each sample) were separated by SDS-PAGE and immunoblotted and transferred to polyvinyl difluoride (PVDF) membranes (BioRad, 162-0177) according to standard protocols. Membranes were immunoblotted with antibodies against phosphor-ERK (Cell Signaling Technology, 4370), ERK (Cell Signaling Technology, 9102), phosphor-AKT (Thermo Fisher Scientific, 44-621G), AKT (Cell Signaling Technology, 4691), phospho-S6 (Cell Signaling Technology, 4858), S6 (Cell Signaling Technology, 2217), and HSP90 (BD Bioscience, 610418). […]

[1] = tested on: Nf1, Rasa1, and Pten-mutant lung adenocarcinoma cell-lines; assay: Clonogenic growth assay and Loewe synergy, mouse oncogene-negative cell lines; format: cell-based; conditions: three mouse cell lines, various doses, four days, crystal violet
Procedure: as §1
For clonogenic assays, cells were seeded in triplicate into 24-well plates (4000 cells per well) and allowed to adhere overnight in regular growth media. Cells were then cultured in the absence or presence of the drug as indicated on each figure panel in complete media for 4 days. Growth media with or without drugs was replaced every 2 days. The remaining cells were stained with 0.5% crystal violet in 20% methanol and photographed using a digital scanner. Relative growth was quantified by densitometry after extracting crystal violet from the stained cells using 100% methanol.
Drug synergism was analyzed using SynergyFinder (https://synergyfinder.fimm.fi) web application. The degree of combination synergy, or antagonism, is quantified by comparing the observed drug combination response against the expected response, calculated using Loewe's model that assumes no interaction between drugs.

[2] = tested on: Nf1, Rasa1, and Pten mutant oncogene-negative lung tumors; assay: Drug efficacy study in TC mice with oncogene-negative lung tumors (Tuba-seq, imaging, histology); format: in vivo, mouse; conditions: tumors from sgNf1/sgRasa1/sgPten vectors, capivasertib 100 mg/kg, RMC-4550 30 mg/kg, gavage, two weeks, 3.5 months after tumor initiation, vs vehicle
Procedure: For drug efficacy studies, TC mice (8-12 weeks old) were divided into 4 groups randomly. They received the vehicle, capivasertib (100 mg/kg, Med Chem Express), RMC-4550 (30 mg/kg, Med Chem Express), or a combination of both dissolved in 10% DMSO, 40% PEG, 5% Tween 80, and 45% PBS through a gavage needle. Mice were treated daily with drugs for eight days, and the treatment was stopped for two days for recovery, and it continued for two more days before the tissue harvest.
Tumors were initiated by intratracheal delivery of pooled or individual Lenti-sgRNA/Cre vectors. Barcoded Lenti-sgRNA/Cre vectors within each viral pool are indicated in each figure. […]
For DNA extraction from single dissected tumors to generate libraries for Tuba-seq, targeted sequencing of selected oncogenes, and whole-exome sequencing, we used Qiagen AllPrep DNA/RNA Micro kit. […] Three cell lines (100,000 to 500,000 cells each) were added to each mouse lung sample before lysis to enable the calculation of the absolute number of neoplastic cells in each tumor from the number of sgID-BC reads. […] The concentration and quality of the purified libraries were determined using the Agilent High Sensitivity DNA kit (Agilent Technologies, 5067-4626) on the Agilent 2100 Bioanalyzer (Agilent Technologies, G2939BA). […]
The FASTQ files were parsed to identify the sgID and barcode (BC) for each read. […]

SMILES | RAS signaling (immunoblot) (RAS and PI3K signaling) | overall growth of oncogene-negative cell lines [1] | total tumor burden (Tuba-seq analysis) [2] | PI3K signaling (immunoblot) (RAS and PI3K signaling)
Cc1nc(N2CCC3(CC2)CO[C@@H](C)[C@H]3N)c(CO)nc1-c1cccc(Cl)c1Cl [RMC-4550] | reduced | decreased the overall growth of three oncogene-negative RAS/PI3K cell lines in a dose-dependent manner | reduced the total tumor burden significantly | –
NC1(C(=O)N[C@@H](CCO)c2ccc(Cl)cc2)CCN(c2ncnc3[nH]ccc23)CC1 [capivasertib] | – | decreased the overall growth of three oncogene-negative RAS/PI3K cell lines in a dose-dependent manner | ineffective | reduced

From patent publication US20240201203A1, “COMPOSITIONS AND METHODS FOR TREATING INDIVIDUALS WHO HAVE ONCOGENE-NEGATIVE CANCER” (priority 2021, published 2024)
